Measurements taken from patent US11684660B2, “Human PD1 peptide vaccines and uses thereof” (OHIO STATE INNOVATION FOUNDATION, priority 2017, dated 2023).
No end group written: not given here.

Columns and labels:
Nivolumab = assay: BIACORE SPR binding to immobilized Nivolumab; conditions: 1 μM peptide
Procedure: (§1) 1 μM BSA was used as the negative control. The chip was regenerated by 10 mM Glycine-HCl, pH 2.5(FIG. 3E).
(§2) 1 μM of various PD-1 peptides were injected over the chip for 1 min at 10 μl/min followed by 1 min dissociation and then 1 min regeneration with 10 mM Glycine-HCl, pH 2.5 for each run.

[1] = tested on: tumor infiltrating lymphocytes; assay: Analysis of tumor infiltrating lymphocytes from peptide-vaccinated mice; assay type: in vivo, Balb/c mice
Procedure: CD4 (20A) and CD8 (20B) T cells were determined by flow cytometry (gated on CD45+ cells). Foxp3+CD25+CD4 Tregs ([…]) were determined by intracellular staining (gated on CD45+CD4+ cells). […] Group means were calculated and compared with Anova
FIGS. 21A and 21B show Analysis of tumor infiltrating lymphocytes from peptide-vaccinated mice. […] Tumor infiltrating cells were isolated from combined tumor tissue from […] (group A to F) of treated mice in first in vivo experiment. Tumor infiltrating cells were isolated from each mouse in group 5 and 6 from second in vivo experiment. CD4 and CD8 cells were determined by flow cytometry (gated on CD45+ infiltrating cells). FoxP3 expression on CD25+CD4+ T cells were determined by intracellular staining (gated on CD45+CD4+ cells). […] CD4 and CD8 cells were determined by flow cytometry (gated on CD45+ infiltrating cells). FoxP3 expression on CD25+CD4+ T cells were determined by intracellular staining (gated on CD45+CD4+ cells). Group means were calculated and compared with Anova. Error bars denote s.e.m.
On the other hand, high numbers of T cells at the tumor site, especially CD8 T cells, is a key denominator for overall survival (OS) in cancer patients. […] Therefore, it was determined CD8/Treg ratio in TIC in tumor-bearing mice vaccinated with combination peptides or control peptide (described above). […] The cells were then incubated with mAbs to the cell-surface markers (CD45, CD4, CD8, CD25 Then the cells were fixed and permeabilized using Cytofix/Cytoperm solution (ebioscience) for 60 min at 4° C., followed by staining for FoxP3 for 30 min at 4° C. 80,000-100,000 live cell events were acquired on a FACSCantoII (BD) and analyzed using FlowJo software (Tree Star, Inc.). To differentiate TILs from tumor cells, the cells were first gated on CD45^+ cells. Then the CD4^+ (FIG. 20A) and CD8^+ (FIG. 20B) cells were analyzed. Tregs were represented by CD4^+CD25^+FoxP3^+ cells (FIG. 20C). GraphPad software (GraphPad Prism Software, Inc., San Diego, Calif., USA) was utilized for statistical analysis. Group means were calculated and compared with Anova. […]

CD4+CD25+FoxP3+ Tregs = assay: Immune-profiling of T cells in spleen and tumor by flow cytometry; assay type: in vivo, Balb/c mice
Procedure: CD4 and CD8 cells were determined by flow cytometry (gated on CD45+CD3+ cells). Foxp3+CD25+CD4 T regulatory cells were determined by intracellular staining. All CD4 and CD8 T cells were gated on CD45+CD3+ cells. Tregs were gated on CD45+CD3+CD4+ cells. Group A=control peptide, Group B=32-50; Group C=45-64; Group D=73-90; Group E=92-110; Group F=α-mouse PD-1 (positive control).
The tumor and tumor draining lymph nodes were collected for subsequent FACS analysis to study the immune response in mice. Cells suspensions were prepared from tissues either by mechanistic dissociation or by enzymatic digestion. The stained cells were analyzed with a LSR II flow cytometer (BD Biosciences) equipped with 3 excitation lasers at wavelengths 405, 488 and 633 nm. CD8+ T cells and CD4+CD25+ T cells from tumor leucocytes were purified either on a MACS column or FACSAria.
Flow cytometric analysis was performed to evaluate the expression of surface markers (CD45, CD3, CD4, CD8 and CD25) and transcription factor FoxP3 in splenocytes and tumor infiltrating T cells. Briefly, spleens were removed from mice and pressed through cell strainers, followed by a short incubation with red blood cells lysis buffer to lyse the red blood cells. Cells were then collected, washed, and resuspended in staining buffer (1% BSA in PBS). Similarly, tumors were removed from mice and pressed through cell strainers, followed by one wash with 37% percoll. The tumor cells were then washed with PBS and resuspended in staining buffer. The splenocytes and tumor cells were incubated with mAbs to the cell-surface markers for 30 min at 4° C. After washing twice with staining buffer, cells were fixed and permeabilized using Cytofix/Cytoperm solution for 60 min at 4° C. Cells were stained for FoxP3 for 30 min at 4° C. 80,000-100,000 live cell events were acquired on a FACSCanto (BD) and analyzed using FlowJo software (Tree Star, Inc.). To differentiate infiltrating cells from tumor cells, the tumor cells were first gated on CD45+ cells. Then the CD3+CD4+ and CD3+CD8+ cells were analyzed. Tregs were represented by CD4+CD25+FoxP3+ cells. […] Group E had the lowest Treg.

[2] = target: T1, extracellular domain of human PD-L1 (hPD-L1) (Homo sapiens, UniProt Q9NZQ7); assay: BIACORE SPR binding to immobilized rhPD-L1; conditions: 1 μM peptide
T1 construct: Recombinant hPD-L1 ectodomain was immobilized onto the gold surface of a CM5 sensor chip
T1 sequence (Q9NZQ7 19-238 limits assumed): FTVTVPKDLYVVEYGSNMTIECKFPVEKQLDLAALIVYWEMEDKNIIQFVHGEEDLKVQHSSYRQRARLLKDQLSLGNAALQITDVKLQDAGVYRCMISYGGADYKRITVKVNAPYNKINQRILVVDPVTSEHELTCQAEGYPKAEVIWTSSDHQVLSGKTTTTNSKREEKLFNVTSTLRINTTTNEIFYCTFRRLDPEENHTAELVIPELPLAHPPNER
Procedure: To test the activity of all the selected peptides, surface plasmon resonance (SPR) spectroscopy (BIACORE™ T200, at […]) was used to measure their binding affinities to the extracellular domain of human PD-L1 (hPD-L1). Recombinant hPD-L1 ectodomain was immobilized onto the gold surface of a CM5 sensor chip by direct amine coupling.
as §1, §2

Substance: KLLSLIKGVIVHRLEGVE-GPSL-GAISLAPKAQIKESLRAEL-CONH2 (KLLSLIKGVIVHRLEGVEGPSLGAISLAPKAQIKESLRAEL-NH2) [MVF-PD-1 (92-110)]
- binding to immobilized Nivolumab (in words) (Nivolumab): bind
- SPR response of peptide binding to immobilized Nivolumab (Nivolumab; 1 min at 10 μl/min): 970 RU
- CD4 T cells or Treg cells in TILs, differences among groups ([1]; Anova): no significant differences
- CD8+ T cells in TILs compared to control peptide-vaccinated group ([1]; gated on CD45+ cells, Anova): significantly higher
- CD8/Treg ratio in TILs compared to control peptide-vaccinated group ([1]; mouse, in vivo): increased
- Treg population in spleen compared to Group A (negative control) (CD4+CD25+FoxP3+ Tregs; splenocytes, FIG. 10A): increased Treg population
- Tregs in tumor (CD4+CD25+FoxP3+ Tregs; tumor infiltrating cells, FIG. 10B): lowest Treg
- binding to immobilized rhPD-L1 (in words) [2]: bind
- SPR response of peptide binding to immobilized rhPD-L1 ([2]; 1 min at 10 μl/min): around 110 RU
